What all share (assay): Indoor herbicide activity determination, Seed Treatment; pre-emergence (soil spray)
Type in all cases: in vivo

For one experiment, the system named is Aegilops tauschii. Particulars: 120 g a.i./ha, read-out: Herbicidal activities (inhibition rate) Aegilops tauschii. An excerpt: (§1) The testing method for herbicide activity of the compound of the present invention was as follows:
(§2) Seed Treatment; pre-emergence: quantitative seeds of gramineous weeds (Echinochloa crusgalli, Eleusine indica, Digitaria sanguinalis, Alopecurus japonicus, Beckmannia syzigachne, Leptochloa chinensis, Polypogon fugax, Alopecurus aequalis, Lolium multiflorum, Poa annua, Aegilops tauschii, Avena fatua, Alopecurus myosuroides, Alopecurus japonicus and Alopecurus aequalis), broad-leaved weeds (Eclipta prostrata, Amaranthus retroflexus, Rorippa indica, Malachium aquaticum, Veronica polita, Conyza canadensis, Sesbania cannabina, Sagittariatrifolia and Schoenoplectiella juncoides), and Cyperus iria were sown in plastic pots having a diameter of 7 cm and holes at the bottom and filled with nutrient soil (sandy soil, pH 6.1, organic matter 1%) respectively, the seeds were covered with an appropriate amount of soil after being sown, then the soil was wetted with water from the bottom, the seeds were cultured in a constant-temperature illuminated culture room for 24 h, and the soil was sprayed by using a 3WP-2000 traveling spray tower produced by the Nanjing Institute of Agricultural Mechanization of the Ministry of Agriculture, where a rotational speed of a main shaft was 96 mm/r, a spray height was 300 mm, an effective spraying range of a nozzle was 350 mm, a spray area was 0.35 m^2, and a flow rate at the nozzle was 390 mL/min.
(§3) Post-emergence: an appropriate quantity of seeds of gramineous weeds (Echinochloa crusgalli, Eleusine indica, Digitaria sanguinalis, Alopecurus japonicus, Beckmannia syzigachne, Leptochloa chinensis, Polypogon fugax, Alopecurus aequalis, Lolium multiflorum, Poa annua, Aegilops tauschii, Avena fatua, Alopecurus myosuroides, Alopecurus japonicus and Alopecurus aequalis), broad-leaved weeds (Eclipta prostrata, Amaranthus retroflexus, Rorippa indica, Malachium aquaticum, Veronica polita, Conyza canadensis, Sesbania cannabina, Sagittariatrifolia and Schoenoplectiella juncoides), and Cyperus iria were sown in plastic pots having a diameter of 7 cm and holes at the bottom and filled with nutrient soil (sandy soil, pH 6.1, organic matter 1%) respectively, the seeds were covered with an appropriate amount of soil after being sown, then the soil was wetted with water from the bottom, the seeds were cultured in a constant-temperature illuminated culture room until a 2-4 leaf stage, and stems and leaves underwent spray treatment. After the treatment, the test materials were placed in a laboratory and cultured in the constant-temperature illuminated culture room after the liquid was naturally dry in the shade, and results were determined 21 days later. Inhibition rate of fresh weight % = (1−(fresh weight of treated plants)/(fresh weight of control plants)) × 100% [formula]

The subject of the next experiment is Alopecurus japonicus.
Excerpt: as §1, §2, §3

A further experiment relates to Alopecurus myosuroides.
Excerpt: as §1, §2, §3

In another experiment the test system is Cyperus iria. Particulars: read-out: Herbicidal activities (inhibition rate) Cyperus iria; for inhibition at 60 g/ha: 60 g a.i./ha.
Excerpt: as §1, §2, §3

The subject of a further experiment is Eleusine indica.
Excerpt: as §1, §2, §3

A further experiment concerns Leptochloa chinensis.
Excerpt: as §1, §2, §3

A further experiment concerns Lolium multiflorum.
Excerpt: as §1, §2, §3

The subject of the next experiment is Eclipta prostrata. Particulars: 60 g a.i./ha, read-out: Herbicidal activities (inhibition rate) Eclipta prostrata.
Excerpt: as §1, §2, §3

Consider 11 compounds from patent EP4722201A1, “3-PHENYLISOXAZOLINE-5-CARBOXAMIDE COMPOUND, AND PREPARATION METHOD THEREFOR, HERBICIDAL COMPOSITION THEREOF AND USE THEREOF” (Jiangsu Flag Chemical Industry Co., Ltd, priority 2023, dated 2024).

Turning to `C=CC1(C(=O)N[C@H]2C[C@@H](C(=O)OCCSC)C2)CC(c2cc(F)cc(F)c2)=NO1` (mixture of isomers) [I-8], the inhibition at 120 g/ha with Aegilops tauschii and with Cyperus iria (120 g a.i./ha) was 80 to 100% in each case. Moreover, the “Herbicidal activities, Alopecurus japonicus (inhibition rate class)” value with Alopecurus japonicus (Dosage 240 g a.i./ha) is “A (A indicates that the inhibition rate was greater than or equal to 80% to 100%)”. The “Herbicidal activities, Alopecurus myosuroides (inhibition rate class)” value in the experiment on Alopecurus myosuroides (Dosage 240 g a.i./ha) was “A (A indicates that the inhibition rate was greater than or equal to 80% to 100%)”. Also, the “Herbicidal activities, Eleusine indica (inhibition rate class)” value in the experiment on Eleusine indica (Dosage 240 g a.i./ha) was “A (A indicates that the inhibition rate was greater than or equal to 80% to 100%)”. In addition, in the experiment on Leptochloa chinensis (Dosage 240 g a.i./ha), the “Herbicidal activities, Leptochloa chinensis (inhibition rate class)” value is recorded as “A (A indicates that the inhibition rate was greater than or equal to 80% to 100%)”. For the same compound, the “Herbicidal activities, Lolium multiflorum (inhibition rate class)” value in the experiment on Lolium multiflorum (Dosage 240 g a.i./ha) is recorded as “A (A indicates that the inhibition rate was greater than or equal to 80% to 100%)”.
With `O=C(N[C@H]1C[C@@H](C(=O)OC2CCCC2)C1)[C@@]1(C(F)(F)F)CC(c2cc(F)cc(OC(F)(F)F)c2)=NO1` [I-253], the “Herbicidal activities, Alopecurus japonicus (inhibition rate class)” value in the experiment with Alopecurus japonicus (Dosage 120 g a.i./ha) was “A (A indicates that the inhibition rate was greater than or equal to 80% to 100%)”. Also, the “Herbicidal activities, Alopecurus myosuroides (inhibition rate class)” value in the experiment on Alopecurus myosuroides (Dosage 120 g a.i./ha) was “A (A indicates that the inhibition rate was greater than or equal to 80% to 100%)”. In addition, the figures for the inhibition at 60 g/ha with Cyperus iria and in the experiment with Eclipta prostrata were 80 to 100% and 60 to 80%, respectively. For the same compound, the “Herbicidal activities, Eleusine indica (inhibition rate class)” value in the experiment with Eleusine indica (Dosage 120 g a.i./ha) is on record as “A (A indicates that the inhibition rate was greater than or equal to 80% to 100%)”. The “Herbicidal activities, Leptochloa chinensis (inhibition rate class)” value with Leptochloa chinensis (Dosage 120 g a.i./ha) was “A (A indicates that the inhibition rate was greater than or equal to 80% to 100%)”.
Regarding `O=C(N[C@H]1C[C@@H](C(=O)OCC(F)(F)C(F)(F)F)C1)[C@@]1(C(F)(F)F)CC(c2cc(F)cc(OC(F)(F)F)c2)=NO1` [I-254], the “Herbicidal activities, Alopecurus japonicus (inhibition rate class)” value in the experiment on Alopecurus japonicus (Dosage 120 g a.i./ha) was “A (A indicates that the inhibition rate was greater than or equal to 80% to 100%)”. Besides, the “Herbicidal activities, Alopecurus myosuroides (inhibition rate class)” value in the experiment with Alopecurus myosuroides (Dosage 120 g a.i./ha) is listed as “A (A indicates that the inhibition rate was greater than or equal to 80% to 100%)”. The inhibition at 60 g/ha with Cyperus iria and in the experiment with Eclipta prostrata was 80 to 100% in each case. Besides, the “Herbicidal activities, Eleusine indica (inhibition rate class)” value in the experiment on Eleusine indica (Dosage 120 g a.i./ha) was “A (A indicates that the inhibition rate was greater than or equal to 80% to 100%)”. Moreover, the “Herbicidal activities, Leptochloa chinensis (inhibition rate class)” value in the experiment on Leptochloa chinensis (Dosage 120 g a.i./ha) is “A (A indicates that the inhibition rate was greater than or equal to 80% to 100%)”.
On to `C=C[C@]1(C(=O)N[C@H]2C=C[C@@H](C(=O)OCCCCCCC)C2)CC(c2cc(F)cc(C(F)(F)F)c2)=NO1` [I-431], for which the “Herbicidal activities, Alopecurus japonicus (inhibition rate class)” value with Alopecurus japonicus (Dosage 120 g a.i./ha) is reported as “A (A indicates that the inhibition rate was greater than or equal to 80% to 100%)”. Further, the “Herbicidal activities, Alopecurus myosuroides (inhibition rate class)” value with Alopecurus myosuroides (Dosage 120 g a.i./ha) is given as “A (A indicates that the inhibition rate was greater than or equal to 80% to 100%)”. Moreover, the inhibition at 60 g/ha in the experiment with Cyperus iria and in the experiment on Eclipta prostrata was 80 to 100% each time. For the same compound, the “Herbicidal activities, Eleusine indica (inhibition rate class)” value in the experiment on Eleusine indica (Dosage 120 g a.i./ha) is recorded as “A (A indicates that the inhibition rate was greater than or equal to 80% to 100%)”. In addition, the “Herbicidal activities, Leptochloa chinensis (inhibition rate class)” value with Leptochloa chinensis (Dosage 120 g a.i./ha) is on record as “A (A indicates that the inhibition rate was greater than or equal to 80% to 100%)”. Further, the “Herbicidal activities, Lolium multiflorum (inhibition rate class)” value with Lolium multiflorum (Dosage 120 g a.i./ha) is given as “A (A indicates that the inhibition rate was greater than or equal to 80% to 100%)”.
Regarding `C=C[C@]1(C(=O)N[C@H]2C=C[C@@H](C(=O)OCc3ccccc3)C2)CC(c2cc(F)cc(C(F)(F)F)c2)=NO1` [I-439], the inhibition at 60 g/ha with Cyperus iria and in the experiment on Eclipta prostrata was 80 to 100% throughout. Moreover, the “Herbicidal activities, Eleusine indica (inhibition rate class)” value in the experiment on Eleusine indica (Dosage 120 g a.i./ha) is recorded as “A (A indicates that the inhibition rate was greater than or equal to 80% to 100%)”. Also, the “Herbicidal activities, Leptochloa chinensis (inhibition rate class)” value in the experiment with Leptochloa chinensis (Dosage 120 g a.i./ha) is “A (A indicates that the inhibition rate was greater than or equal to 80% to 100%)”.
In the case of `C=CC(C)OC(=O)[C@@H]1C=C[C@H](NC(=O)[C@@]2(C=C)CC(c3cc(F)cc(C(F)(F)F)c3)=NO2)C1` (stereo partly drawn) [I-444], the inhibition at 60 g/ha in the experiment with Cyperus iria and in the experiment with Eclipta prostrata was 80 to 100% throughout. Also, in the experiment with Eleusine indica (Dosage 120 g a.i./ha), the “Herbicidal activities, Eleusine indica (inhibition rate class)” value is “A (A indicates that the inhibition rate was greater than or equal to 80% to 100%)”. Moreover, the “Herbicidal activities, Leptochloa chinensis (inhibition rate class)” value in the experiment with Leptochloa chinensis (Dosage 120 g a.i./ha) is on record as “A (A indicates that the inhibition rate was greater than or equal to 80% to 100%)”.
As for `C=C[C@]1(C(=O)N[C@H]2C=C[C@@H](C(=O)OC)C2)CC(c2cc(Cl)cc(OC(F)(F)F)c2)=NO1` [I-471], the inhibition at 60 g/ha in the experiment on Cyperus iria and in the experiment on Eclipta prostrata was 80 to 100% each time. Besides, the “Herbicidal activity (inhibition rate class), Eleusine indica” value in the experiment on Eleusine indica (Dosage 120 g a.i./ha) is “A (A indicates that the inhibition rate was greater than or equal to 80% to 100%)”. Besides, the “Herbicidal activity (inhibition rate class), Leptochloa chinensis” value with Leptochloa chinensis (Dosage 120 g a.i./ha) is “A (A indicates that the inhibition rate was greater than or equal to 80% to 100%)”.
On to `C=C[C@]1(C(=O)N[C@H]2C=C[C@@H](C(=O)OC3CCC3)C2)CC(c2cc(Cl)cc(C(F)(F)F)c2)=NO1` [I-478], for which, in the experiment with Alopecurus japonicus (Dosage 120 g a.i./ha), the “Herbicidal activity (inhibition rate class), Alopecurus japonicus” value is on record as “A (A indicates that the inhibition rate was greater than or equal to 80% to 100%)”. Further, the “Herbicidal activity (inhibition rate class), Alopecurus myosuroides” value with Alopecurus myosuroides (Dosage 120 g a.i./ha) is “A (A indicates that the inhibition rate was greater than or equal to 80% to 100%)”. Also, the inhibition at 60 g/ha in the experiment with Cyperus iria and in the experiment with Eclipta prostrata was 80 to 100% throughout. In the experiment on Eleusine indica (Dosage 120 g a.i./ha), the “Herbicidal activity (inhibition rate class), Eleusine indica” value is recorded as “A (A indicates that the inhibition rate was greater than or equal to 80% to 100%)”. Also, in the experiment with Leptochloa chinensis (Dosage 120 g a.i./ha), the “Herbicidal activity (inhibition rate class), Leptochloa chinensis” value is recorded as “A (A indicates that the inhibition rate was greater than or equal to 80% to 100%)”. In addition, in the experiment with Lolium multiflorum (Dosage 120 g a.i./ha), the “Herbicidal activity (inhibition rate class), Lolium multiflorum” value is reported as “B (B indicates that the inhibition rate was greater than or equal to 60% to less than 80%)”.
Turning to `C=C[C@]1(C(=O)N[C@H]2C=C[C@@H](C(=O)OC(C)C)C2)CC(c2cc(Cl)cc(C(F)(F)F)c2)=NO1` [I-483], the inhibition at 60 g/ha in the experiment on Cyperus iria and in the experiment on Eclipta prostrata was 80 to 100% each time. For the same compound, the “Herbicidal activity (inhibition rate class), Eleusine indica” value in the experiment on Eleusine indica (Dosage 120 g a.i./ha) is given as “A (A indicates that the inhibition rate was greater than or equal to 80% to 100%)”. Moreover, the “Herbicidal activity (inhibition rate class), Leptochloa chinensis” value in the experiment with Leptochloa chinensis (Dosage 120 g a.i./ha) is on record as “A (A indicates that the inhibition rate was greater than or equal to 80% to 100%)”.
On to `C#CC(CC)OC(=O)[C@@H]1C=C[C@H](NC(=O)[C@@]2(C)CC(c3cc(Cl)cc(C(F)(F)F)c3)=NO2)C1` (stereo partly drawn) [I-514], for which the “Herbicidal activity (inhibition rate class), Alopecurus japonicus” value in the experiment on Alopecurus japonicus (Dosage 120 g a.i./ha) is “A (A indicates that the inhibition rate was greater than or equal to 80% to 100%)”. Moreover, the “Herbicidal activity (inhibition rate class), Alopecurus myosuroides” value in the experiment on Alopecurus myosuroides (Dosage 120 g a.i./ha) was “A (A indicates that the inhibition rate was greater than or equal to 80% to 100%)”. Moreover, the inhibition at 60 g/ha in the experiment on Cyperus iria and in the experiment with Eclipta prostrata was 80 to 100% throughout. Besides, the “Herbicidal activity (inhibition rate class), Eleusine indica” value with Eleusine indica (Dosage 120 g a.i./ha) is reported as “A (A indicates that the inhibition rate was greater than or equal to 80% to 100%)”. Further, the “Herbicidal activity (inhibition rate class), Leptochloa chinensis” value with Leptochloa chinensis (Dosage 120 g a.i./ha) is “A (A indicates that the inhibition rate was greater than or equal to 80% to 100%)”. Moreover, the “Herbicidal activity (inhibition rate class), Lolium multiflorum” value in the experiment with Lolium multiflorum (Dosage 120 g a.i./ha) is given as “A (A indicates that the inhibition rate was greater than or equal to 80% to 100%)”.
`COC(=O)[C@@H]1C=C[C@H](NC(=O)[C@@]2(C(F)F)CC(c3cc(F)cc(C(F)(F)F)c3)=NO2)C1` [I-532]: the inhibition at 60 g/ha in the experiment with Cyperus iria and in the experiment on Eclipta prostrata was 80 to 100% throughout. The “Herbicidal activity (inhibition rate class), Eleusine indica” value with Eleusine indica (Dosage 120 g a.i./ha) is recorded as “A (A indicates that the inhibition rate was greater than or equal to 80% to 100%)”. Further, in the experiment on Leptochloa chinensis (Dosage 120 g a.i./ha), the “Herbicidal activity (inhibition rate class), Leptochloa chinensis” value is given as “A (A indicates that the inhibition rate was greater than or equal to 80% to 100%)”.
